For assay [1], the target named is T1, EZH2 within the PRC2 complex (Homo sapiens (Human), UniProt Q15910). In words: EZH2 methyltransferase SPA, biotinylated histone H3K27 peptide substrate (Assay Protocol 2). Format: biochemical. Particulars: 3H-SAM, ≦10 nM approaches limit of detection. An outline of the steps: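 Five-member human PRC2 complex (FLAG-EZH2, EED, SUZ12, RbAp48, AEBP2) co-expressed in Sf9 cells, 1 nM final, with 10 uM biotinylated H3K27 peptide, 0.15 uM 3H-SAM plus 2.85 uM cold SAM, pH 8, 60 min at rt. Quenched with cold SAM; SPA signal; IC50 from 11-point curves vs DMSO.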
T1 sequence (Q15910 whole entry): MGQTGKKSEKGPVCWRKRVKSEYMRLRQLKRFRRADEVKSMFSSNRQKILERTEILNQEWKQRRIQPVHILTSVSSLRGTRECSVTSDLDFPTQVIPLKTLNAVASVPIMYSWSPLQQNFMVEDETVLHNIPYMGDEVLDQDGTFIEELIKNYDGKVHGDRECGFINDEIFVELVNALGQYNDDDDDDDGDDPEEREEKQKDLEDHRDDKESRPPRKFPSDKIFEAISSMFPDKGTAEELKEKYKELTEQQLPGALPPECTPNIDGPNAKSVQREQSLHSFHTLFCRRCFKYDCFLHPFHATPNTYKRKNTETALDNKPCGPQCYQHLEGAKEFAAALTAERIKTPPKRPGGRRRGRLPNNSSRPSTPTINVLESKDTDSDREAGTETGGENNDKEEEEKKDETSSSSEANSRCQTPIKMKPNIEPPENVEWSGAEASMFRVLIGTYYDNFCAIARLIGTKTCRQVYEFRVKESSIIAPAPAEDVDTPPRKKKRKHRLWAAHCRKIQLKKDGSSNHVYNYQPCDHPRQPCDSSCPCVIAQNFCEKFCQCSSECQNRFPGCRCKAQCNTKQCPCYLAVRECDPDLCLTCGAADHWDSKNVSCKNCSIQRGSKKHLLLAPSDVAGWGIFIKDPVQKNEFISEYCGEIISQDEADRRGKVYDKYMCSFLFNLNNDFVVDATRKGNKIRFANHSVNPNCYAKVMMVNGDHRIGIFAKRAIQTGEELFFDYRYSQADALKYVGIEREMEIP
T1 sequence (O75530 whole entry partner): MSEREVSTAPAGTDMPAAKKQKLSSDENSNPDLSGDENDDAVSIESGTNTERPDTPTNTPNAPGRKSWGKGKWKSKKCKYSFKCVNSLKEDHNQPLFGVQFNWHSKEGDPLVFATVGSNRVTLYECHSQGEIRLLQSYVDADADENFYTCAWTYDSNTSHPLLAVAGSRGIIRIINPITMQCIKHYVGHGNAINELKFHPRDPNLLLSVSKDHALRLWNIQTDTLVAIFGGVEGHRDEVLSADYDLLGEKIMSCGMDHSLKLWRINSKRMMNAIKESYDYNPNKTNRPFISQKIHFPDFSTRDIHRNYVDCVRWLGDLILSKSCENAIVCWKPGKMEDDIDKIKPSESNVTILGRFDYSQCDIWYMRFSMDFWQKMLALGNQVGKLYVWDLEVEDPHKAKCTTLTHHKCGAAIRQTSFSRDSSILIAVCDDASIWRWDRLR
T1 sequence (Q15022 whole entry partner): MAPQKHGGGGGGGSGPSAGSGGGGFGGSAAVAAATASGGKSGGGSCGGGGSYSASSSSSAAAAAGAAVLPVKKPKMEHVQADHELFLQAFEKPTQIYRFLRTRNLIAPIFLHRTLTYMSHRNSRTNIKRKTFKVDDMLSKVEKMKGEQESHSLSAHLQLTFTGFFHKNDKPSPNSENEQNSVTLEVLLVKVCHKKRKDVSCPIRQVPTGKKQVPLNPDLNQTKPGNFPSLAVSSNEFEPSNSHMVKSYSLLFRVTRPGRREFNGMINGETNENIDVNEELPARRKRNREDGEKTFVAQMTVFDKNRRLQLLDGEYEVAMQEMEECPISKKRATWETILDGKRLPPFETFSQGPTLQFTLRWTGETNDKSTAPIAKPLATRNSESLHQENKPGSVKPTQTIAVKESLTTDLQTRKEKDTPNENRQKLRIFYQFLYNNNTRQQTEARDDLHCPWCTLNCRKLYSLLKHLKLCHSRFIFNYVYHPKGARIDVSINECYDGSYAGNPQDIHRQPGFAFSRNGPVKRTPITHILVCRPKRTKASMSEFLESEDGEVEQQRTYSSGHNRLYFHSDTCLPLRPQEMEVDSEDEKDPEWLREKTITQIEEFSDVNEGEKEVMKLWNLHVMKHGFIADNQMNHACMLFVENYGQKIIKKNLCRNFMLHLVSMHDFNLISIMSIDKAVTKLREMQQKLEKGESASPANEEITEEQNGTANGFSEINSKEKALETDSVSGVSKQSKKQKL
T1 sequence (Q09028 whole entry partner): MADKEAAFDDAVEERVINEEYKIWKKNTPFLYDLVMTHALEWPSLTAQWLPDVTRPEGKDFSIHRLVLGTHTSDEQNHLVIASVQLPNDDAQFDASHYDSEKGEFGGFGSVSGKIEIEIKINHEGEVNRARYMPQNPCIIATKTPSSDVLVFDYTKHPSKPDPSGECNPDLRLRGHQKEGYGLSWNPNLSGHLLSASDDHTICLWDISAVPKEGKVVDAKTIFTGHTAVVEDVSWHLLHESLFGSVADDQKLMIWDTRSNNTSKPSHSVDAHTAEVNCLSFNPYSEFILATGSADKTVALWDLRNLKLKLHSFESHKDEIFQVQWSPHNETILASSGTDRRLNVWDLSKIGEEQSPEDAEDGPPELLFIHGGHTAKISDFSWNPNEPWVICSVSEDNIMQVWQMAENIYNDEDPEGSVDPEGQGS
T1 sequence (Q6ZN18 whole entry partner): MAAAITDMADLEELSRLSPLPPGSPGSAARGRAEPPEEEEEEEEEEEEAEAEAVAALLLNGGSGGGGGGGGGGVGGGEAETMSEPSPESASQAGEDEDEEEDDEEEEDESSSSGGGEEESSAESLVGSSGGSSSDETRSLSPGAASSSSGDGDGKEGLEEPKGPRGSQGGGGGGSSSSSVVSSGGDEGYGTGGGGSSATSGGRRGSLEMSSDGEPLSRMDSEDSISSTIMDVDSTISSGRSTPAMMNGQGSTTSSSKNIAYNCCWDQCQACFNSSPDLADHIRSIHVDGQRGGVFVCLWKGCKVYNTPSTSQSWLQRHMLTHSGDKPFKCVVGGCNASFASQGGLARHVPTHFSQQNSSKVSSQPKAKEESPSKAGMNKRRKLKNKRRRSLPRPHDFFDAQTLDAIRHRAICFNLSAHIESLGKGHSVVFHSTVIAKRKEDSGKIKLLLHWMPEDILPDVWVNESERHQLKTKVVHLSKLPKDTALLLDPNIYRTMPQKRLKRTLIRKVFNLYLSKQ

Assay [2] has as its target T1, EZH2 within the PRC2 complex. Put plainly: EZH2 methyltransferase SPA, mononucleosome substrate (Assay Protocol 1). It counts as biochemical. The conditions noted are these: HeLa mononucleosome substrate, 3H-SAM, ≦10 nM approaches limit of detection. As to the method:
Compounds contained herein were evaluated for their ability to inhibit the methyltransferase activity of EZH2 within the PRC2 complex. Human PRC2 complex was prepared by co-expressing each of the 5 member proteins (FLAG-EZH2, EED, SUZ12, RbAp48, AEBP2) in Sf9 cells followed by co-purification. Enzyme activity was measured in a scintillation proximity assay (SPA) where a tritiated methyl group is transferred from 3H-SAM to a lysine residue on Histone H3 of a mononucleosome, purified from HeLa cells. Mononucleosomes were captured on SPA beads and the resulting signal is read on a ViewLux plate reader.
Part A. Compound Preparation
• 1. Prepare 10 mM stock of compounds from solid in 100% DMSO. • 2. Set up an 11-point serial dilution (1:3 dilution, top concentration 10 mM) in 100% DMSO for each test compound in a 384 well plate leaving columns 6 and 18 for DMSO controls. • 3. Dispense 100 nL of compound from the dilution plate into reaction plates (Grenier Bio-One, 384-well, Cat#784075). Part B. Reagent Preparation Prepare the following solutions: • 1. 50 mM Tris-HCl, pH 8: Per 1 L of base buffer, combine 1 M Tris-HCl, pH 8 (50 mL) and distilled water (950 mL). • 2. 1× Assay Buffer: Per 10 mL of 1× Assay Buffer, combine 50 mM Tris-HCl, pH 8 (9958 uL), 1 M MgCl2 (20 uL), 2 M DTT (20 uL), and 10% Tween-20 (2 uL) to provide a final concentration of 50 mM Tris-HCl, pH 8, 2 mM MgCl2, 4 mM DTT, 0.002% Tween-20. • 3. 2× Enzyme Solution: Per 10 mL of 2× Enzyme Solution, combine 1× Assay Buffer and PRC2 complex to provide a final enzyme concentration of 10 nM. • 4. SPA Bead Suspension: Per 1 mL of SPA Bead Suspension, combine PS-PEI coated LEADSeeker beads (40 mg) and H2O (1 mL) to provide a final concentration of 40 mg/mL. • 5. 2× Substrate Solution: Per 10 mL of 2× Substrate Solution, combine 1× Assay Buffer (9728.55 uL), 800 ug/mL mononucleosomes (125 uL), 1 mM cold SAM (4 uL), and 7.02 uM 3H-SAM (142.45 uL; 0.55 mCi/mL) to provide a final concentration of 5 ug/mL nucleosomes, 0.2 uM cold SAM, and 0.05 uM 3H-SAM. • 6. 2.67× Quench/Bead Mixture: Per 10 mL of 2.67× Quench/Bead Mixture, combine ddH2O (9358 uL), 10 mM cold SAM (267 uL), 40 mg/mL Bead Suspension (375 uL) to provide a final concentration of 100 uM cold SAM and 0.5 mg/mL SPA beads. Part C. Assay Reaction in 384-well Grenier Bio-One Plates Compound Addition • 1. Dispense 100 nL/well of 100× Compound to test wells (as noted above). • 2. Dispense 100 nL/well of 100% DMSO to columns 6 & 18 for high and low controls, respectively. Assay • 1. Dispense 5 uL/well of 1× Assay Buffer to column 18 (low control reactions). • 2. Dispense 5 uL/well of 2× Enzyme Solution to columns 1-17, 19-24. • 3. Spin assay plates for ˜1 min at 500 rpm. • 4. Stack the assay plates, covering the top plate. • 5. Incubate the compound/DMSO with the enzyme for 30 min at room temperature. • 6. Dispense 5 uL/well of 2× Substrate Solution to columns 1-24. • 7. Spin assay plates for ˜1 min at 500 rpm. • 8. Stack the assay plates, covering the top plate. • 9. Incubate the assay plates at room temperature for 1 hour. Quench/Bead Addition • 1. Dispense 5 uL/well of the 3× Quench/Bead Mixture to columns 1-24. • 2. Seal the top of each assay plate with adhesive TopSeal. • 3. Spin assay plates for ˜1 min at 500 rpm. • 4. Equilibrate the plates for >20 min. Read plates • 1. Read the assay plates on the Viewlux Plate Reader utilizing the 613 nm emission filter with a 300 s read time.
Reagent addition can be done manually or with automated liquid handler. • The final DMSO concentration in this assay is 1%. • The positive control is in column 6; negative control is in column 18. • Final starting concentration of compounds is 100 µM. Results
Percent inhibition was calculated relative to the DMSO control for each compound concentration and the resulting values were fit using standard IC50 fitting parameters within the ABASE data fitting software package.

Where a name gives a salt, the structure may show the parent alone. Where only a bound is given, the exact number is not on record here.

Regarding `CCN(c1ccc(C(=O)NCc2c(C)cc(C)[nH]c2=O)s1)C1CCOCC1` [Example 30, N-((4,6-Dimethyl-2-oxo-1,2-dihydropyridin-3-yl)methyl)-5-(ethyl(tetrahydro-2H-pyran-4-yl)amino)thiophene-2-carboxamide], the half-maximal inhibitory concentration (IC50) in assay [1] is ≥ 100000 nM; in assay [2], 39800 nM.
As for `Cc1cc(C)c(CNC(=O)c2csc(C(C)N3CCC(N(C)C)CC3)c2)c(=O)[nH]1` (stereo not drawn) [Example 13, N-((4,6-dimethyl-2-oxo-1,2-dihydropyridin-3-yl)methyl)-5-(1-(4-(dimethylamino)piperidin-1-yl)ethyl)thiophene-3-carboxamide], the concentration for half-maximal inhibition (IC50) in assay [1] was 2000 nM; in assay [2] it was 316 nM.
The matching figures for `CCN(c1scc(C(=O)NCc2c(C)cc(C)n(C)c2=O)c1C)C1CCOCC1` [Example 31, 5-(Ethyl(tetrahydro-2H-pyran-4-yl)amino)-4-methyl-N-((1,4,6-trimethyl-2-oxo-1,2-dihydropyridin-3-yl)methyl)thiophene-3-carboxamide]: 794 nM and 100 nM.
The matching figures for `CCN(c1sc(Br)c(C(=O)NCc2c(C)cc(C)[nH]c2=O)c1C)C1CCOCC1` [Example 19, 2-Bromo-N-((4,6-dimethyl-2-oxo-1,2-dihydropyridin-3-yl)methyl)-5-(ethyl(tetrahydro-2H-pyran-4-yl)amino)-4-methylthiophene-3-carboxamide]: 20 nM and ≤ 10 nM.
On the same counts, the results for `CCN(c1c(Cl)sc(C(=O)NCc2c(C)cc(C)[nH]c2=O)c1C)C1CCOCC1` [Example 3, 5-Chloro-N-((4,6-dimethyl-2-oxo-1,2-dihydropyridin-3-yl)methyl)-4-(ethyl(tetrahydro-2H-pyran-4-yl)amino)-3-methylthiophene-2-carboxamide] are 200 nM and 100 nM.
As for `CCN(c1scc(C(=O)NCc2c(C)cc(C(F)(F)F)[nH]c2=O)c1C)[C@H]1CC[C@H](N(C)C)CC1` [Example 17, 5-(((trans)-4-(Dimethylamino)cyclohexyl)(ethyl)amino)-4-methyl-N-((4-methyl-2-oxo-6-(trifluoromethyl)-1,2-dihydropyridin-3-yl)methyl)thiophene-3-carboxamide], the IC50 in assay [1] was found to be 630 nM; in assay [2], 316 nM.
The matching figures for `Cc1cc(C)c(CNC(=O)c2csc(C(C)N3CCC(N(C)C)CC3)c2C)c(=O)[nH]1` (stereo not drawn) [Example 27, N-((4,6-dimethyl-2-oxo-1,2-dihydropyridin-3-yl)methyl)-5-(1-(4-(dimethylamino)piperidin-1-yl)ethyl)-4-methylthiophene-3-carboxamide hydrochloride]: 63 nM and 31 nM.
On the same counts, the results for `CCN(c1csc(C(=O)NCc2c(C)cc(C)[nH]c2=O)c1C)[C@H]1CC[C@H](N(C)C)CC1` [Example 4, N-((4,6-dimethyl-2-oxo-1,2-dihydropyridin-3-yl)methyl)-4-(((trans)-4-(dimethylamino)cyclohexyl)(ethyl)amino)-3-methylthiophene-2-carboxamide] are 25 nM and 16 nM.
The matching figures for `Cc1cc(C)c(CNC(=O)c2cnn(CC3CCOCC3)c2C)c(=O)[nH]1` [Example 10, N-((4,6-dimethyl-2-oxo-1,2-dihydropyridin-3-yl)methyl)-5-methyl-1-((tetrahydro-2H-pyran-4-yl)methyl)-1H-pyrazole-4-carboxamide]: ≥ 100000 nM and 15800 nM.
As to `CCN(c1scc(C(=O)NCc2c(C)cc(C)[nH]c2=O)c1C)C1CCNCC1` [Example 12, N-((4,6-dimethyl-2-oxo-1,2-dihydropyridin-3-yl)methyl)-5-(ethyl(piperidin-4-yl)amino)-4-methylthiophene-3-carboxamide hydrochloride], the IC50 in assay [1] is 20 nM; in assay [2], ≤ 10 nM.
In the case of `Cc1cc(C)c(CNC(=O)c2csc(N3CCCC3C)c2C)c(=O)[nH]1` (stereo not drawn) [Example 25, N-((4,6-Dimethyl-2-oxo-1,2-dihydropyridin-3-yl)methyl)-4-methyl-5-(2-methylpyrrolidin-1-yl)thiophene-3-carboxamide], the values for the IC50 in assay [1] and in assay [2] were 630 nM and 100 nM, respectively.
On the same counts, the results for `Cc1cc(C)c(CNC(=O)c2csc(C3CCN(C(=O)OC(C)(C)C)C3)c2C)c(=O)[nH]1` (stereo not drawn) [Example 24, tert-Butyl 3-(4-(((4,6-dimethyl-2-oxo-1,2-dihydropyridin-3-yl)methyl)carbamoyl)-3-methylthiophen-2-yl)pyrrolidine-1-carboxylate] are 3980 nM and 251 nM.
The matching figures for `CCC(c1scc(C(=O)NCc2c(C)cc(C)[nH]c2=O)c1C)N1CCOCC1` (stereo not drawn) [Example 29, N-((4,6-dimethyl-2-oxo-1,2-dihydropyridin-3-yl)methyl)-4-methyl-5-(1-morpholinopropyl)thiophene-3-carboxamide]: 3160 nM and 398 nM.
For `CCN(c1scc(C(=O)NCc2c(C)cc(C)[nH]c2=O)c1C)C1CCOCC1` [Example 6, N-((4,6-dimethyl-2-oxo-1,2-dihydropyridin-3-yl)methyl)-5-(ethyl(tetrahydro-2H-pyran-4-yl)amino)-4-methylthiophene-3-carboxamide], the IC50 in assay [1] and in assay [2] was 16 nM throughout.
As to `Cc1cc(C)c(CNC(=O)c2csc(C(O)C3CCNCC3)c2C)c(=O)[nH]1` (stereo not drawn) [Example 21, N-((4,6-dimethyl-2-oxo-1,2-dihydropyridin-3-yl)methyl)-5-(hydroxy(piperidin-4-yl)methyl)-4-methylthiophene-3-carboxamide], the half-inhibitory concentration (IC50) in assay [1] was 316 nM; in assay [2] it was 100 nM.
The matching figures for `CCN(c1scc(C(=O)NCc2c(C)cc(C)n(C)c2=O)c1C)[C@H]1CC[C@H](N(C)C)CC1` [Example 32, 5-(((trans)-4-(Dimethylamino)cyclohexyl)(ethyl)amino)-4-methyl-N-((1,4,6-trimethyl-2-oxo-1,2-dihydropyridin-3-yl)methyl)thiophene-3-carboxamide]: 50 nM and ≤ 10 nM.
Turning to `Cc1cc(C)c(CNC(=O)c2csc(C(C)N3CCOCC3)c2C)c(=O)[nH]1` (stereo not drawn) [Example 26, N-((4,6-dimethyl-2-oxo-1,2-dihydropyridin-3-yl)methyl)-4-methyl-5-(1-morpholinoethyl)thiophene-3-carboxamide], the IC50 in assay [1] amounted to 5010 nM; in assay [2], 630 nM.
With `Cc1cc(C)c(CNC(=O)c2csc(-c3cnn(C4CCNCC4)c3)c2C)c(=O)[nH]1` [Example 23, N-((4,6-dimethyl-2-oxo-1,2-dihydropyridin-3-yl)methyl)-4-methyl-5-(1-(piperidin-4-yl)-1H-pyrazol-4-yl)thiophene-3-carboxamide], the concentration for half-maximal inhibition (IC50) in assay [1] turned out to be 3980 nM; in assay [2], 501 nM.

Usually IC50 stands for the concentration needed to halve the response being measured. A higher IC50 goes with a need for much substance.
